pIC50: −log10 of the molar value. Activity calls are given as the source filed them. The calls are words filed in the database; no cut-off is given here.
Columns and labels:
Hepatitis B virus [1] = assay: Antiviral activity against HBV infected in human HepG2-NTCP cells assessed as reduction in HBeAg secretion incubated for 24 hrs followed replacement with fresh medium and measured at day 5 post infection by ELISA; type: functional, organism-based
HepG2 [2] = assay: Cytotoxicity against human HepG2 cells expressing NTCP assessed as reduction in cell viability at 10 uM after 48 hrs by alamar blue assay; type: cell-based; settings: hepg2, 48 h
Hepatitis B virus [3] = assay: Antiviral activity against HBV infected in human HepG2-NTCP cells assessed as reduction in intracellular accumulation of HBsAg at 1 uM by immunostaining based fluorescence microscopic analysis; type: functional, organism-based
[4] = molecular target: T1, Hepatic sodium/bile acid cotransporter (Homo sapiens, UniProt Q14973); assay: Inhibition of human NTCP-mediated NQL-065 uptake expressed in human HepG2 cells incubated for 30 mins; type: cell-based; settings: hepg2, 0.5 h
T1 sequence (Q14973 whole entry): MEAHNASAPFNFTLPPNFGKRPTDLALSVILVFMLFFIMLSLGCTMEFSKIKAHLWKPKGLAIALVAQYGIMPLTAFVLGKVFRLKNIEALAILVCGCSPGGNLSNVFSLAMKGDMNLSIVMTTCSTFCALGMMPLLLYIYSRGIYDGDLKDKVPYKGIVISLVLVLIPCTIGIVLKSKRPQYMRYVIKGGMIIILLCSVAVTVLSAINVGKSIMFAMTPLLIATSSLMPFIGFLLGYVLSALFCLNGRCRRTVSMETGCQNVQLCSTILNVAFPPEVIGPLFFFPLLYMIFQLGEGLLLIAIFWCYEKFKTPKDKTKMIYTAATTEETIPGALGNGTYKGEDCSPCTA

Hepatitis B virus [5] = assay: Antiviral activity against HBV infected in human HepG2-NTCP cells assessed as reduction in intracellular HBV RNA level at 1 uM by qPCR analysis; type: functional, organism-based
[6] = molecular target: T1, Hepatic sodium/bile acid cotransporter; assay: Inhibition of human NTCP-mediated [3H]-TCA uptake expressed in human HepG2 cells; type: cell-based; settings: for inhibition (INH): human, hepg2
HepG2 [7] = assay: Effect on NTCP surface expression in human HepG2-NTCP cells assessed as reduction in NTCP surface expression level after 2 hrs by immunostaining based assay; type: functional, cell-based
[8] = molecular target: T2, Hepatic sodium/bile acid cotransporter (Mus musculus, UniProt O08705); assay: Inhibition of mouse NTCP-mediated [3H]-TCA uptake expressed in human HepG2 cells; type: cell-based
T2 sequence (O08705 whole entry): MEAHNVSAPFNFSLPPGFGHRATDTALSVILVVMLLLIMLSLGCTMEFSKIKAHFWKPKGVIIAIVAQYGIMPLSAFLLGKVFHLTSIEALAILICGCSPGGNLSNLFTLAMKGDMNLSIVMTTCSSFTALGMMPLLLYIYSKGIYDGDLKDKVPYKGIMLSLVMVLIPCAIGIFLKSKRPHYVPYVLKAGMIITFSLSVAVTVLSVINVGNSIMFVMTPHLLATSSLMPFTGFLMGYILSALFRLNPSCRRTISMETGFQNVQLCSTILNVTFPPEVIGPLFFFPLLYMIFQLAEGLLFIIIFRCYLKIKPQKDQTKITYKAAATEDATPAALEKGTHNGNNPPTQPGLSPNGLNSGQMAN

Hepatitis B virus [9] = assay: Antiviral activity against HBV infected in human HepG2-NTCP cells assessed as reduction in HBeAg secretion preincubated for 2 hrs followed by viral infection by ELISA; type: functional, organism-based
[10] = molecular target: T1, Hepatic sodium/bile acid cotransporter; assay: Inhibition of human NTCP-mediated NQL-064 uptake expressed in human HepG2 cells incubated for 30 mins; type: cell-based; settings: hepg2, 0.5 h
HepG2 [11] = assay: Inhibition of tree shrew NTCP-mediated [3H]-TCA uptake expressed in human HepG2 cells; type: cell-based; settings: Scandentia
Hepatitis delta virus = assay: Antiviral activity against HDV infected in human HepG2-NTCP cells assessed as reduction in intranuclear accumulation of HDV delta antigen at 5 uM incubated for 24 hrs followed by replacement with fresh medium and measured at day 5 post infection by DAPI staining based confocal microscopic analysis (reference value: 12.1 %); type: functional; design: scale not given: the % may be the effect or the level left
[12] = molecular target: T1, Hepatic sodium/bile acid cotransporter; assay: Inhibition of FITC-labeled HBV Pre-S1 polypeptide binding to human NTCP expressed in HepG2 cells after 2 to 3 hrs by confocal microscopic analysis; type: cell-based; settings: time 2-3 hrs
[13] = molecular target: T1, Hepatic sodium/bile acid cotransporter; assay: Inhibition of human NTCP-mediated [3H]-Estrone sulfate uptake expressed in human HepG2 cells at 2 uM; type: cell-based; settings: hepg2, 2 µM
Hepatitis B virus [14] = assay: Antiviral activity against HBV infected in human HepG2-NTCP cells assessed as reduction in HBeAg secretion at 1 uM pre-infected with virus followed by compound addition by ELISA; type: functional, organism-based
HepG2 [15] = assay: Inhibition of monkey NTCP-mediated [3H]-TCA uptake expressed in human HepG2 cells; type: cell-based; settings: Macaca mulatta
Hepatocyte = assay: Cytotoxicity against primary tupaia hepatocytes expressing NTCP assessed as reduction in cell viability at 100 uM after 48 hrs by Cell-Titer Glo assay; type: cell-based; settings: scandentia
Hepatitis B virus [16] = assay: Antiviral activity against HBV infected in human HepG2-NTCP cells assessed as reduction in intracellular accumulation of HBcAg at 1 uM by immunostaining based fluorescence microscopic analysis; type: functional, organism-based
[17] = molecular target: T1, Hepatic sodium/bile acid cotransporter; assay: Inhibition of human NTCP-mediated [3H]-TCA uptake expressed in human HepG2 cells at 2 uM; type: cell-based; settings: hepg2, 2 µM
Hepatitis B virus [18] = assay: Antiviral activity against HBV infected in human HepG2-NTCP cells assessed as reduction in HBeAg secretion at 111 to 1000 nM incubated for 24 hrs followed by replacement with fresh medium and measured at day 5 post infection by ELISA; type: functional, organism-based; settings: dose 111-1000 nM
Hepatitis B virus [19] = assay: Antiviral activity against HBV infected in human HepG2-NTCP cells assessed as reduction in HBeAg secretion at 1 uM compound added along with viral infection by ELISA; type: functional, organism-based
[20] = molecular target: T3, Solute carrier organic anion transporter family member 1B1 (Homo sapiens, UniProt Q9Y6L6); assay: Inhibition of human OATP1B1-mediated [3H]-Estrone sulfate uptake expressed in human HepG2 cells at 2 uM; type: cell-based; settings: hepg2, 2 µM
T3 sequence (Q9Y6L6 whole entry): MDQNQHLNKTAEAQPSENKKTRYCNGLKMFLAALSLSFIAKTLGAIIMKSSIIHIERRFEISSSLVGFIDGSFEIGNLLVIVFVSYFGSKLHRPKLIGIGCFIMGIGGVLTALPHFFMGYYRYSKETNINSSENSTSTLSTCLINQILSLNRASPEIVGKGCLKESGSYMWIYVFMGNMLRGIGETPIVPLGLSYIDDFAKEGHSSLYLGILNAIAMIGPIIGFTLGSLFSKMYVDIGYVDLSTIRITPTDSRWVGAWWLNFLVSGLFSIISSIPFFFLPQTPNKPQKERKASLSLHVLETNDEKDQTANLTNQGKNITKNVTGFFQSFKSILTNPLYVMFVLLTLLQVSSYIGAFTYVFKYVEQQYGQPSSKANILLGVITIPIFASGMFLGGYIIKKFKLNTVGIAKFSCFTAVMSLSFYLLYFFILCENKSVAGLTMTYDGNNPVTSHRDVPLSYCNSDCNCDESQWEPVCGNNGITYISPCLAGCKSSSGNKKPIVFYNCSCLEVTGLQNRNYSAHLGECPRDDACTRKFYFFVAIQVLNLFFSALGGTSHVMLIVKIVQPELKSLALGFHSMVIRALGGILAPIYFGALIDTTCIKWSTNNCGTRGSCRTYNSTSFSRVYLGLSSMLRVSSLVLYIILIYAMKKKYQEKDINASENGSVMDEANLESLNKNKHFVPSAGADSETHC

Compound | pIC50 (Hepatitis B virus [1]) | Activity (HepG2 [2]) | Activity (Hepatitis B virus [3]) | inhibition (INH) [4] | Activity (Hepatitis B virus [5]) | inhibition (INH) [6] | Activity (HepG2 [7]) | inhibition (INH) [8] | Activity (Hepatitis B virus [9]) | inhibition (INH) [10] | inhibition (HepG2 [11]) | Activity (Hepatitis delta virus) [%] | inhibition (INH) [12] | inhibition (INH) [13] | Activity (Hepatitis B virus [14]) | inhibition (HepG2 [15]) | Activity (Hepatocyte) | Activity (Hepatitis B virus [16]) | inhibition (INH) [17] | Activity (Hepatitis B virus [18]) | other results
C[C@H](CCC(=O)O[C@@H]1CC[C@@]2(C)[C@@H](C1)C[C@H](O)[C@@H]1[C@@H]2CC[C@]2(C)[C@@H]([C@H](C)CCC(=O)NCCS(=O)(=O)O)CC[C@@H]12)[C@H]1CC[C@H]2[C@@H]3[C@@H](O)C[C@@H]4C[C@H](O)CC[C@]4(C)[C@H]3CC[C@]12C | 7.24 | Non-Toxic | Active | Active | Active | Active | inactive | Active | Active | Active | Active | 1.7 | Active | Active | inactive | Active | Non-Toxic | Active | Active | Active | Activity (Hepatitis B virus [19]): Active; inhibition (INH) [20]: Not Active
C[C@H](CCC(=O)NCCS(=O)(=O)O)[C@H]1CC[C@H]2[C@@H]3[C@@H](O)C[C@@H]4C[C@H](NC(=O)CCCC(=O)N[C@@H]5CC[C@@]6(C)[C@@H](C5)C[C@H](O)[C@@H]5[C@@H]6CC[C@]6(C)[C@@H]([C@H](C)CCC(=O)NCCS(=O)(=O)O)CC[C@@H]56)CC[C@]4(C)[C@H]3CC[C@]12C | 7.39 | Non-Toxic | Active | Active | Active | Active | inactive | Not Active | inactive | Active | inactive | 2.5 | Active | Active | inactive | inactive | Non-Toxic | Active | Active | Active | pIC50 [6]: 7.23; Activity (Hepatitis B virus [19]): Active; inhibition (INH) [20]: Not Active

Source: ChEMBL document CHEMBL4834431, “Design of Dimeric Bile Acid Derivatives as Potent and Selective Human NTCP Inhibitors” (J Med Chem, 2021)
